In data set [1] the target is human adenosine A2A receptors (Homo sapiens, UniProt P29274). The data set is described as follows: Binding affinities at hA2A receptors, displacement of [3H]-CGS 21680. Conditions: in vitro binding, radioligand [3H]-CGS 21680. The text has this:
The compounds were examined in an assay measuring in vitro binding to human adenosine A2A receptors by determining the displacement of the adenosine A2A receptor selective radioligand [^3H]-CGS 21680 using standard techniques.
A general note: In a radioligand displacement assay an active substance lowers the binding of a labelled ligand.

Data set [2] concerns haloperidol-induced hypolocomotion. The data set is described as follows: Haloperidol-induced hypolocomotion model. The note with it: mice, 10 mg/kg intraperitoneally, haloperidol 0.2 mg/kg. The class given is in vivo. The text has this: This approach is also considered a valid method for screening drugs with potential antiparkinsonian effects. Thus, the ability of novel adenosine antagonists to block haloperidol-induced deficits in locomotor activity in mice can be used to assess both in vivo and potential antiparkinsonian efficacy.
Female TO mice (25-30 g) obtained from TUCK, UK, are used for all experiments. Animals are housed in groups of 8 [cage size−40 (width)×40 (length)×20 (height)cm] under 12 hr light/dark cycle (lights on 08:00 hr), in a temperature (20±2° C.) and humidity (55±15%) controlled environment. Animals have free access to food and water, and are allowed at least 7 days to acclimatize after delivery before experimental use.
Liquid injectable haloperidol (1 ml Serenance ampoules from Baker Norton, Harlow, Essex, each containing haloperidol BP 5 mg, batch # P424) are diluted to a final concentration of 0.02 mg/ml using saline. Test compounds are typically prepared as aqueous suspensions in 8% Tween. All compounds are administered intraperitoneally in a volume of 10 ml/kg.
1.5 hours before testing, mice are administered 0.2 mg/kg haloperidol, a dose that reduces baseline locomotor activity by at least 50%. […] Horizontal locomotor activity is determined by placing the cages within a frame containing a 3×6 array of photocells linked to a computer, which tabulates beam breaks. […]

For the next data set, the system named is catalepsy. Conditions: cited from earlier work.
For data set [3] the following is noted: cited from earlier work.

The structures appear in SMILES notation.

Sequence of human adenosine A2A receptors (P29274 whole entry): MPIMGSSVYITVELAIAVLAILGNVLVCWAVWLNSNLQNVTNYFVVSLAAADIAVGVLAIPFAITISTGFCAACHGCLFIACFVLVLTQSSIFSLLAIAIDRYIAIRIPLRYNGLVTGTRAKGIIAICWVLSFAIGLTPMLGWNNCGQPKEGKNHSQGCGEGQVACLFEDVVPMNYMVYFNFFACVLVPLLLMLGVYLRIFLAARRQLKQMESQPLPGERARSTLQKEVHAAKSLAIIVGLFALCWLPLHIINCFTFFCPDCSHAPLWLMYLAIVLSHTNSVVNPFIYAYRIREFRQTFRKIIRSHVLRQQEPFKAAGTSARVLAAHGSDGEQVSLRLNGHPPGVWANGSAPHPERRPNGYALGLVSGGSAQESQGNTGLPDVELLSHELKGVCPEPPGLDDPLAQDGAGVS

`OC(c1ccccc1)c1cc(C(F)(F)F)nc2c(C(F)(F)F)cccc12` (stereo not drawn) [Example 1, 2,8-Bis(trinfluoromethyl)-α-phenyl-4-quinolinemethanol]: the melting point – broadly, the temperature of the solid-liquid transition – lay within 151 to 152 °C. Moreover, the Ki (in general, the dissociation constant of the complex between target and ligand, obtained from inhibition or displacement) in data set [1] worked out at 1.7 µM. With `OC(c1cccs1)c1cc(C(F)(F)F)nc2c(C(F)(F)F)cccc12` (stereo not drawn) [Example 2, 2,8-Bis(trifluoromethyl)-α-(2-thienyl)-4-quinolinemethanol], the Ki in data set [1] is 1.55 µM. In turn, `OC(c1ccsc1)c1cc(C(F)(F)F)nc2c(C(F)(F)F)cccc12` (stereo not drawn) [Example 3, 2,8-Bis(trifluoromethyl)-α-(3-thienyl)-4-quinolinemethanol] yielded an inhibition constant (Ki) in data set [1] of 0.954 µM.

Take `OC(c1ccco1)c1cc(C(F)(F)F)nc2c(C(F)(F)F)cccc12` (stereo not drawn) [Example 4, 2,8-Bis(trifluoromethyl)-α-(2-furyl)-4-quinolinemethanol]: the affinity in data set [1] corresponds to a Ki of 1.12 µM. The Ki values of the last two compounds are within 1.5-fold of each other.

`OC(c1ccoc1)c1cc(C(F)(F)F)nc2c(C(F)(F)F)cccc12` (stereo not drawn) [Example 5, 2,8-Bis(trifluoromethyl)-α-(3-furyl)-4-quinolinemethanol] displayed an inhibition constant Ki in data set [1] of 1.03 µM. This Ki and that of the compound before are within 1.5-fold of each other.

Consider `OC(c1cc(C(F)(F)F)nc2c(C(F)(F)F)cccc12)C1CCCCC1` (stereo not drawn) [Example 7, 2,8-Bis(trifluoromethyl)-α-clohexyl-4-quinolinemethanol], for which the Ki in data set [1] is 0.852 µM. This Ki and that of the compound before are within 1.5-fold of each other. Still for that read-out and setting: then `OC1(c2cc(C(F)(F)F)nc3c(C(F)(F)F)cccc23)CCc2ccccc21` (stereo not drawn) [Example 10, 1-(2,8-Bis(tnfluoromethyl)-4-quinolinyl)-1-indanol], with 1.75 µM. In the case of `OC1(c2cc(C(F)(F)F)nc3c(C(F)(F)F)cccc23)CCCc2ccccc21` (stereo not drawn) [Example 11, 1-(2,8-Bis(trifluoromethyl)-4-quinolinyl)-1,2,3,4-tetrabydro-1-naphthol], the melting point was 128.8 to 129.4 °C. In addition, the affinity in data set [1] corresponds to a Ki of 1.36 µM. Compound `OC1Cc2ccccc2C1c1cc(C(F)(F)F)nc2c(C(F)(F)F)cccc12` (stereo not drawn) [Example 12, 1-(2,8-Bis(trifluorometbyl)-4-quinolinyl)-2-indanol] had a Ki in data set [1] of 1.9 µM.

As to `Cc1c(C(F)(F)F)nc2c(C(F)(F)F)cccc2c1C(O)c1cccs1` (stereo not drawn) [Example 16, 2,8-Bis(trifluoromethyl)-3-methyl-α-(2-thienyl)-4-quinolinemethanol], the melting point is 125.1 to 125.8 °C. The affinity in data set [1], expressed as Ki, was 1.79 µM. `OC(c1ccccc1Cl)c1cc(C(F)(F)F)nc2c(C(F)(F)F)cccc12` (stereo not drawn) [Example 18, 2,8-Bis(trifluoromethyl)-α-(2-chlorophenyl)-4-quinolinemethanol] displayed a Ki in data set [1] of 1.19 µM.

Turning to `O=[N+]([O-])c1ccccc1C(O)c1cc(C(F)(F)F)nc2c(C(F)(F)F)cccc12` (stereo not drawn) [Example 19, 2,8-Bis(trifluoromethyl)-α-(2-nitrophenyl)-4-quinolinemethanol], affinity in data set [1] was put at a Ki of 1.74 µM. The Ki values of the last two compounds are within 1.5-fold of each other.

Compound `OC(c1c(Cl)cccc1Cl)c1cc(C(F)(F)F)nc2c(C(F)(F)F)cccc12` (stereo not drawn) [Example 20, 2,8-Bis(trifluoromethyl)-α-(2,6-dichlorophenyl)-4-quinolinemethanol] registered a melting point of 151.2 to 151.7 °C. This compound had a Ki in data set [1] of 0.649 µM. The compound `OC(c1ccccc1Br)c1cc(C(F)(F)F)nc2c(C(F)(F)F)cccc12` (stereo not drawn) [Example 21, 2,8-Bis(trifluoromethyl)-α-(2-bromophenyl)-4-quinolinemethanol] had a melting point of 147 to 149 °C. The same compound yielded a Ki in data set [1] of 0.743 µM. On the same counts, the results for `OC(c1ccccc1F)c1cc(C(F)(F)F)nc2c(C(F)(F)F)cccc12` (stereo not drawn) [Example 22, 2,8-Bis(trifluoromethyl)-α-(2-fluorophenyl)-4-quinolinemethanol] are 119.5 to 120.8 °C and 1.92 µM. The matching figures for `COc1ccccc1C(O)c1cc(C(F)(F)F)nc2c(C(F)(F)F)cccc12` (stereo not drawn) [Example 23]: 132 to 134 °C and 0.701 µM. For `Cc1cccc2c(C(O)c3ccccc3)cc(C(F)(F)F)nc12` (stereo not drawn) [Example 26, 8-Methyl-α-phenyl-2-trifluoromethyl-4-quinolinemethanol], the Ki in data set [1] turned out to be 1.11 µM. With `Cc1cccc2c(C(O)c3ccccc3Cl)cc(C(F)(F)F)nc12` (stereo not drawn) [Example 27, α-(2-Chlorophenyl)-8-methyl-2-trinfluoromethyl-4-quinolinemethanol], the Ki in data set [1] is 1.13 µM. The Ki values of the last two compounds are within 1.5-fold of each other. For the compound `Cc1cccc2c(C(O)c3ccsc3)cc(C(F)(F)F)nc12` (stereo not drawn) [Example 28, 8-Methyl-α-(3-thienyl)-2-trifluoromethyl-4-quinolinemethanol], the melting point lay in the range of 113 to 114 °C. Moreover, the Ki in data set [1] is 0.574 µM. In the case of `Cc1cccc2c(C(O)C3CCCCC3)cc(C(F)(F)F)nc12` (stereo not drawn) [Example 29, α-Cyclohexyl-8-methyl-2-trifluoromethy-4-quinolinemethanol], the affinity in data set [1] corresponds to a Ki of 0.965 µM. In other words, the sub-micromolar range. The compound `CCc1cccc2c(C(O)c3ccccc3)cc(C(F)(F)F)nc12` (stereo not drawn) [Example 31, 8-Ethyl-α-phenyl-2-trifluoromethy-4-quinolinemethanol] gave a melting point of 102 to 104 °C. Besides, the Ki in data set [1] came out at 1.77 µM.

In turn, `CCc1cccc2c(C(O)c3ccsc3)cc(C(F)(F)F)nc12` (stereo not drawn) [Example 32, 8-Ethyl-α-(3-thienyl)-2-trifluoromethyl-4-quinolinemethanol] displayed a Ki in data set [1] of 1.07 µM. Compound `OC(c1ccsc1)c1cc(C(F)(F)F)nc2c(Cl)cccc12` (stereo not drawn) [Example 47, 8-Chloro-α-(3-thienyl)-2-trifluoromethyl-4-quinolinemethanol] returned a Ki in data set [1] of 1.07 µM. As to `CC(O)(c1cc2ccccc2o1)c1cc(C(F)(F)F)nc2c(C(F)(F)F)cccc12` (stereo not drawn) [Example 51], in data set [1], affinity was put at a Ki of 1.52 µM.

Consider `Oc1ccc(C(O)c2cc(C(F)(F)F)nc3c(C(F)(F)F)cccc23)cc1` (stereo not drawn) [Example 74, 2,8-Bis(trifluoromethyl)-α-(4-hydroxyphenyl)-4-quinolinemethanol], for which affinity in data set [1] was put at a Ki of 1.63 µM. `OC(c1cc(NCc2ccccc2)nc2ccccc12)C1CCCCC1` (stereo not drawn) [Example 79, 2-Benzylamino-α-cyclohexyl-4-quinolinemethanol]: the melting point lay within 122.5 to 123.1 °C.

In turn, `OCCCCC(O)c1cc(C(F)(F)F)nc2c(C(F)(F)F)cccc12` (stereo not drawn) [Example 82, 1-(2,8-Bis(trifluoromethyl)-4-quinolinyl)-5-hydroxypentanol] showed a melting point of 120.6 to 120.9 °C. Same read-out and setting: then `OC(c1ccccc1)c1cc(Cl)nc2ccccc12` (stereo not drawn) [Example 83, 2-Chloro-α-phenyl-4-quinolinemethanol], with 144 to 146 °C. In the case of `Oc1cc(C(O)C2CCCCC2)c2ccccc2n1` (stereo not drawn) [Example 86, α-Cyclohexyl-2-hydroxy-4-quinolinemethanol], the melting point was > 250 °C. In data set [2], the “reversal of haloperidol-induced hypolocomotion” value is given as “significantly reversed”. Regarding `Cc1cccc2c(C(O)c3ccccn3)cc(O)nc12` (stereo not drawn) [Example 88, 2-Hydroxy-8-methyl-α-(2-pyridyl)-4-quinolinemethanol], the melting point was 215 °C (dec.).

Take `Oc1cc(C(O)(c2ccccc2)c2ccccc2)c2ccccc2n1` [Example 90, α,α-Diphenyl-2-hydroxy-4-quinolinemethanol]: the melting point was > 350 °C. On to `OC(c1ccccc1)c1cc(-c2ccccc2)nc2ccccc12` (stereo not drawn) [Example 91, 2,α-Diphenyl-4-quinolinemethanol], for which the melting point lay in the range of 111 to 112 °C.

For the compound `FC(F)(F)c1cc(-c2ccco2)c2cccc(C(F)(F)F)c2n1` [Example 93, 2,8-Bis(trifluoromethyl)-4-(2-furanyl)quinoline], the melting point is 82 to 83 °C. Consider `CCCn1c(=O)c2c(nc(/C=C/c3ccc(OC)c(OC)c3)n2C)n(CCC)c1=O` [KF 17837, (E)-8-(3,4-dimethoxystyryl)-1,3-dipropyl-7-methylxanthine], for which, in the data set with catalepsy (in vivo), the “anticataleptic effects of a subthreshold dose of L-DOPA plus benserazide” value is recorded as “potentiated”; the “catalepsy induced by haloperidol and reserpine” value was “reduced”. In the data set on catalepsy (oral administration), the “cataleptic responses induced by intracerebroventricular CGS 21680” value was “significantly ameliorated”. For `Cn1c(=O)c2[nH]cnc2n(C)c1=O` [theophylline, 1,3-dimethylxanthine], the “mean objective disability scores” value in data set [3] (15 Parkinsonian patients, up to 12 weeks, 150 mg/day) is “significant improvements”. In data set [3] (slow release oral preparation 150 mg/day, after one week, Parkinsonian patients), the serum theophylline levels is listed as 4.44 mg/L.
